Results reported in US7303618B1, “Ink for ink-jet recording” (Brother Kogyo Kabushiki Kaisha, priority 2006, dated 2007).

Assay: Ozone resistance (OD value reduction of printed patch)
Assay type: physicochemical
Conditions: discussion of Table 1
Excerpt: Each of the inks for ink-jet recording was filled into a desired ink cartridge, and the ink cartridge was attached to a digital multifunction device equipped with an ink-jet printer (DCP-110C, product of Brother Industries, Ltd.) to perform the printing evaluation. First, as an evaluation sample, a gradation sample of each cyan ink was printed on photo glossy paper (Model No. BP60GLA, product of Brother Industries, Ltd.) to prepare a patch having an initial OD value of 1.0. This patch was then subjected to an ozone resistance evaluation test using an Ozone Weather Meter OMS-H (product of Suga Test Instruments Co., Ltd.). That is, the patch was left to stand under the conditions of an ozone concentration of 1 ppm, a chamber temperature of 24° C. and a chamber humidity of 60% RH for 40 hours. Specifically, the color patch printed with each cyan ink and having an OD value of 1.0 before the test was then measured for an OD value after the ozone resistance evaluation test was completed. The OD value was measured by means of a Spectrolino (product of Gretag Macbeth) (light source: D65; viewing angle: 2°; Status A). […]
The obtained OD value reduction ratio was then evaluated according to the criteria below. When the OD value reduction ratio is less than 30%, the ozone resistance performance for general use is determined to be at an acceptable level. […]

## C. I. Direct Blue 199 [Dye (2-C)]
  Ozone resistance (in words): poor
